Measured values reported in article PMC7517944, “Design and Synthesis of Novel Nordihydroguaiaretic Acid (NDGA) Analogues as Potential FGFR1 Kinase Inhibitors With Anti-Gastric Activity and Chemosensitizing Effect” (Frontiers in Pharmacology, 2020).

Key:
FGFR1 kinase [1] = target: T1, FGFR1 kinase (Homo sapiens, UniProt P11362); assay: cell-free Caliper mobility shift kinase assay, inhibition at […]; type: biochemical
FGFR1 kinase [2] = target: T1, FGFR1 kinase; assay: cell-free Caliper mobility shift kinase assay, […] inhibition at […]; also lowers p-FGFR1 in cells; type: biochemical

T1 sequence (P11362 22-822): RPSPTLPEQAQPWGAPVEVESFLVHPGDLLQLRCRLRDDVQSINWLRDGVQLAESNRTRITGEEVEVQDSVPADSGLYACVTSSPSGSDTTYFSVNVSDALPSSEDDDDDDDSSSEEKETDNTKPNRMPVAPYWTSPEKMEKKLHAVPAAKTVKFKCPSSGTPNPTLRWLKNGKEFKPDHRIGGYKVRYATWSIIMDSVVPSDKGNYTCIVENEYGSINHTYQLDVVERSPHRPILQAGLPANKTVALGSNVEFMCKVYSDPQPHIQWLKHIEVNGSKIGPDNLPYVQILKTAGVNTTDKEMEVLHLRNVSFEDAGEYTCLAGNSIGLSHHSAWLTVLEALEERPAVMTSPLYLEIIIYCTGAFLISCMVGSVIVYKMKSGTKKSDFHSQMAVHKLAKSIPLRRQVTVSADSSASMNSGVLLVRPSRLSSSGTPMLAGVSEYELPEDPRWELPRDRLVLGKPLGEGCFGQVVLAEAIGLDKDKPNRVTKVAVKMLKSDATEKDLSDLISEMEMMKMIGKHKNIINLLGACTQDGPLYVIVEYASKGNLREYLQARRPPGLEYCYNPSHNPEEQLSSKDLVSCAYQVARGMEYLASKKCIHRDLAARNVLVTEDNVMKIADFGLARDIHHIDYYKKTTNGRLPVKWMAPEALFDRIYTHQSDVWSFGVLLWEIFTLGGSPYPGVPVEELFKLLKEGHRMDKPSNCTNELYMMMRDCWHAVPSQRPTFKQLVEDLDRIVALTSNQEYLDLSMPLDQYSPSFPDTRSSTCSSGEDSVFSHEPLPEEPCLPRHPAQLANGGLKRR

inhibition at 20 µM (FGFR1 kinase [1]) [%]	inhibition at 20 µM (FGFR1 kinase [2]) [%]	SMILES
53.5	–	COc1ccc(/C=C2\COC/C(=C\c3ccc(O)c(O)c3)C2=O)cc1O [Y9, (3E,5E)-3-(3,4-dihydroxybenzylidene)-5-(3-hydroxy-4-methoxybenzylidene)dihydro-2H-pyran-4(3H)-one]
54.2	–	COc1ccccc1/C=C1\COC/C(=C\c2ccc(O)c(O)c2)C1=O [Y11, (3E,5E)-3-(3,4-dihydroxybenzylidene)-5-(2-methoxybenzylidene)dihydro-2H-pyran-4(3H)-one]
71.4	–	O=C1/C(=C/c2ccc(N3CCOCC3)cc2)COC/C1=C\c1ccc(O)c(O)c1 [Y13, (3E,5E)-3-(3,4-dihydroxybenzylidene)-5-(4-morpholinobenzylidene)dihydro-2H-pyran-4(3H)-one]
–	92	COc1cccc(/C=C2\COC/C(=C\c3ccc(O)c(O)c3)C2=O)c1OC [Y14, (3E,5E)-3-(3,4-dihydroxybenzylidene)-5-(2,3-dimethoxybenzylidene)dihydro-2H-pyran-4(3H)-one]
67.6	–	COc1ccc(OC)c(/C=C2\COC/C(=C\c3ccc(O)c(O)c3)C2=O)c1 [Y15, (3E,5E)-3-(3,4-dihydroxybenzylidene)-5-(2,5-dimethoxybenzylidene)dihydro-2H-pyran-4(3H)-one]

Continued, molecule first:

SMILES	inhibition at 20 µM (FGFR1 kinase [1]) [%]	inhibition at 20 µM (FGFR1 kinase [2]) [%]
O=C1/C(=C/c2ccc(O)c(O)c2)COC/C1=C\c1ccc(O)c(O)c1 [Af23]	92.8	–
COc1cc(/C=C2\COC/C(=C\c3ccc(O)c(O)c3)C2=O)ccc1O [Y2, (3E,5E)-3-(3,4-dihydroxybenzylidene)-5-(4-hydroxy-3-methoxybenzylidene)dihydro-2H-pyran-4(3H)-one]	55.7	–
O=C1/C(=C/c2ccc(O)cc2)COC/C1=C\c1ccc(O)c(O)c1 [Y5, (3E,5E)-3-(3,4-dihydroxybenzylidene)-5-(4-hydroxybenzylidene)dihydro-2H-pyran-4(3H)-one]	78.5	–
O=C1/C(=C/c2cccc(O)c2)COC/C1=C\c1ccc(O)c(O)c1 [Y7, (3E,5E)-3-(3,4-dihydroxybenzylidene)-5-(3-hydroxybenzylidene)dihydro-2H-pyran-4(3H)-one]	73.7	–
